Here are results for 6 substances from paper PMC4493835 (Frontiers in Microbiology, 2015).

The test system of one experiment is Phytophthora infestans. The experiment is classed as cell-based.
Another experiment relates to Phytophthora capsici. The class given is cell-based. The note with it: 50 μM brabantamide A.
A further experiment has as its system Pythium ultimum. The class given is cell-based. The following applies: 50 μM brabantamide A.
Another experiment has as its system fungi. The class given is cell-based.
Another experiment deals with phospholipase D. The class given is cell-based, Phytophthora infestans.
For the next experiment, the system named is Staphylococcus aureus. The following applies: ref Reder-Christ et al., 2012; Schmidt et al., 2014; cited from earlier work. An excerpt: Recently, we discovered Pseudomonas sp. SH-C52, a strain representative of a larger population of Pseudomonads that contributes to the natural suppressiveness of a soil against the fungal plant pathogen Rhizoctonia solani (Mendes et al., [2011]). The gene cluster responsible for the activity of strain SH-C52 against R. solani is encoded by an NRPS, predicted to synthesize a 9-amino-acid chlorinated LP, designated thanamycin (Mendes et al., [2011]). The production and partial structure of thanamycin was resolved by live colony mass spectrometry (Watrous et al., [2012]). Next to thanamycin, stra ...

For experiment [1], the system named is Arthrobacter crystallopoietes. The following applies: cited from earlier work.
In experiment [2] the test system is Pectobacterium atrosepticum. The class given is cell-based. The note with it: inferred from wild type vs thanamycin mutants; data not shown. The method, then: (§1) For in vitro growth inhibition of fungi and oomycetes, SH-C52 and its derivative strains were, using an overnight culture in KB, spot-inoculated (3 μl) at the periphery of 1/5th strength PDA (pH 7.0) plates. After incubation for 2 days at 25°C, an agar plug (4-mm-diameter) from a freshly grown plate with the target organism was transferred to the center of the 1/5th PDA plate. Inhibition of radial growth of the fungus or the oomycete was monitored from 2 days after incubation up to 2 weeks after incubation, depending on the growth speed of the target organism. For in vitro bacteria and yeast inhibition assays, bacteria and yeast cells were included, after autoclaving and cooling to 45°C, into the 1/5th PDA medium at a concentration of ~10^5 cfu/ml. After solidifying and sufficient drying of the plates, SH-C52 and its derivative strains were, using an overnight culture in KB, spot-inoculated (3 μl) at the periphery of the bacteria or yeast containing plates.

Another experiment concerns Pseudomonas syringae. The experiment is classed as cell-based. The note with it: inferred from wild type vs thanamycin mutants; data not shown. Here is the method:
as §1

Another experiment concerns Rhizoctonia solani. The note with it: cited from earlier work.
Experiment [3] concerns B. megaterium. The following applies: cited from earlier work.
In experiment [4] the test system is B. megaterium. The following applies: cited from earlier work. This is another data set of the same source.
In the next experiment the test system is Rhodotorula pilimanae. The following applies: cited from earlier work.

Read-outs that look alike come from different tables or passages of the source.

On to brabantamide A, for which, in the experiment on Phytophthora infestans, the “concentration above which mycelial growth is inhibited (less dense mycelial mat)” value is “above 5 μM”. Besides, in the experiment with Phytophthora infestans (1% DMSO, 18°C), the “activity against P. infestans” value was “has activity”. For the same substance, the “activity against Phytophthora capsici” value in the experiment with Phytophthora capsici was “has activity”. Also, the “activity against Pythium ultimum” value in the experiment with Pythium ultimum is reported as “has activity”. In addition, in the experiment on fungi, the antifungal activity entry is listed as “No antifungal activity”. In the experiment on phospholipase D, the “concentration at which the increase in PtdBut levels already occurred” value was at most 1 µM and the other phospholipid levels entry is reported as “not affected”. For the same substance, the “phosphatidylbutanol (PtdBut) levels (indicates stimulation of phospholipase D)” value with phospholipase D (n = 2) is “increase”. Further, the “inhibition of phospholipase A2” value in the experiment on phospholipase A2 is given as “no indication was found”. Moreover, in the experiment on Staphylococcus aureus, the “activity against Staphylococcus aureus” value is given as “displays activity”. In experiment [1], the “activity against Arthrobacter crystallopoietes” value was “displays activity”.
As to thanamycin, the “activity against Pectobacterium atrosepticum” value in experiment [2] is given as “little activity”. For the same substance, in the experiment on Pseudomonas syringae, the “activity against Pseudomonas syringae” value is listed as “little activity”. Further, the “antifungal activity against Rhizoctonia solani” value in the experiment on Rhizoctonia solani is “antifungal activity”.
For syringopeptin, the “activity against B. megaterium” value in the experiment with B. megaterium [3] was “activity was observed”.
Regarding cormycin, the “activity against B. megaterium” value with B. megaterium [4] is “active”. The “activity against the yeast Rhodotorula pilimanae” value in the experiment with Rhodotorula pilimanae is “active”.
For the substance brabantamide, in the experiment on phospholipase D, the “variation in the phospholipid levels” value is “no significant variation”.
In the case of corpeptin, the “activity against B. megaterium” value in the experiment with B. megaterium [3] is “activity was observed”.
